Measurements taken from patent US11814367B2, “Inhibitors of glycogen synthase 1 (GYS1) and methods of use thereof” (Maze Therapeutics, Inc., priority 2021, dated 2023).

How the values were obtained:
[1] = target: hGYS2 enzyme (recombinant hGYS2/GN1 protein) (Homo sapiens (Human), UniProt P54840); experiment: GYS2 coupled enzyme assay (PK/LDH); assay type: biochemical; conditions: geometric mean of at least 2 assay runs on separate days, read-out: Avg_IC50
Method in brief: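 Read-out: NADH loss at 340 nm, read each minute for 10 min, slope normalized to controls, duplicate % inhibition fit to Hill (0–100). Enzyme: 200 nM hGYS2/GN1; substrate 2 mM UDP-glucose plus 0.2% glycogen and 2 mM G6P; pH 7.5 Tris, 2.5% DMSO.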

[2] = target: hGYS1 enzyme (recombinant hGYS1/GN1 protein) (Homo sapiens (Human), UniProt P13807); experiment: GYS1 coupled enzyme assay (PK/LDH); assay type: biochemical; conditions: hGYS1/GN1 50 nM, UDP-Glucose 0.8 mM, G6P 1 mM; geometric mean of at least 2 runs
Sequence of hGYS1 enzyme (recombinant hGYS1/GN1 protein) (P13807 whole entry): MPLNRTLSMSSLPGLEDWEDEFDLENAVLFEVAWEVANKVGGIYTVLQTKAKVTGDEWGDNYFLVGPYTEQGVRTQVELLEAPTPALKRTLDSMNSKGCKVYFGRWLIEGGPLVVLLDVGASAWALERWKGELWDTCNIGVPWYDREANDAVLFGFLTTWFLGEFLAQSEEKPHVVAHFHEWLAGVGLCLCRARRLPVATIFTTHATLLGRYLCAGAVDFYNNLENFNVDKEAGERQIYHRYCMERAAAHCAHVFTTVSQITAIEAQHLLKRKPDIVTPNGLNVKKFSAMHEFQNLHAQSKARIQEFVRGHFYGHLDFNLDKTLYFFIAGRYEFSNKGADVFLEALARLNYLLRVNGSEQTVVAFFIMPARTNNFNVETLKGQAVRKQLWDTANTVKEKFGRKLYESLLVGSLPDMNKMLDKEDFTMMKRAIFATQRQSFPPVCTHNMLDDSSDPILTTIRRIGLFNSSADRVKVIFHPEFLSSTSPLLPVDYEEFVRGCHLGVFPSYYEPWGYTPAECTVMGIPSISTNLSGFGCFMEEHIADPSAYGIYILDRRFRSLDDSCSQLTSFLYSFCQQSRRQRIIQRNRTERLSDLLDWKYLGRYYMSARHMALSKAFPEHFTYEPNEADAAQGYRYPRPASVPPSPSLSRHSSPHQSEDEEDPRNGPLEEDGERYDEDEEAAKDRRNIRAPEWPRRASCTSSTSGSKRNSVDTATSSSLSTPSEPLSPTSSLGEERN
Sequence of hGYS1 enzyme (recombinant hGYS1/GN1 protein) (P46976 whole entry partner): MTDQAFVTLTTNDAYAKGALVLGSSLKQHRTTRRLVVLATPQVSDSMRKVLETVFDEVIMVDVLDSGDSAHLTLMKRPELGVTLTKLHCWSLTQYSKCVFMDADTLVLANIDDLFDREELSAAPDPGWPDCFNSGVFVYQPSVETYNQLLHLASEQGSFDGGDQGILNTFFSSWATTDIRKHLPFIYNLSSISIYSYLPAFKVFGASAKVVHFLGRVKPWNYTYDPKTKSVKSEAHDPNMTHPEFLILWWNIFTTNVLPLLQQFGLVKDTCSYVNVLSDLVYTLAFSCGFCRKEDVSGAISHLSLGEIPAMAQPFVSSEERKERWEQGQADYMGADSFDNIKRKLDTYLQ

[3] = system: hGYS1 enzyme / glycogen synthesis in HeLa cells; experiment: GYS1 cell based assay (glycogen synthesis, Glucose-glo); parameters: species or system human; conditions: Homo sapiens, HeLa, 24 h, 24 h incubation, 20 mM glucose, geometric mean of at least 2 runs
Method in brief: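 HeLa cells starved 24 h in medium containing only 1× Glutamax were plated onto compound in medium with 20 mM glucose (1% DMSO final) for 24 h, 37 °C, 5% CO2. Acid lysates were Tris-quenched, glucoamylase-digested (pH 5.3, 1 h, 37 °C) and read by Glucose-glo luminescence. IC50 came from Hill fits, as geometric mean of ≥2 runs.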

Sequence of hGYS2 enzyme (recombinant hGYS2/GN1 protein) (P54840 whole entry): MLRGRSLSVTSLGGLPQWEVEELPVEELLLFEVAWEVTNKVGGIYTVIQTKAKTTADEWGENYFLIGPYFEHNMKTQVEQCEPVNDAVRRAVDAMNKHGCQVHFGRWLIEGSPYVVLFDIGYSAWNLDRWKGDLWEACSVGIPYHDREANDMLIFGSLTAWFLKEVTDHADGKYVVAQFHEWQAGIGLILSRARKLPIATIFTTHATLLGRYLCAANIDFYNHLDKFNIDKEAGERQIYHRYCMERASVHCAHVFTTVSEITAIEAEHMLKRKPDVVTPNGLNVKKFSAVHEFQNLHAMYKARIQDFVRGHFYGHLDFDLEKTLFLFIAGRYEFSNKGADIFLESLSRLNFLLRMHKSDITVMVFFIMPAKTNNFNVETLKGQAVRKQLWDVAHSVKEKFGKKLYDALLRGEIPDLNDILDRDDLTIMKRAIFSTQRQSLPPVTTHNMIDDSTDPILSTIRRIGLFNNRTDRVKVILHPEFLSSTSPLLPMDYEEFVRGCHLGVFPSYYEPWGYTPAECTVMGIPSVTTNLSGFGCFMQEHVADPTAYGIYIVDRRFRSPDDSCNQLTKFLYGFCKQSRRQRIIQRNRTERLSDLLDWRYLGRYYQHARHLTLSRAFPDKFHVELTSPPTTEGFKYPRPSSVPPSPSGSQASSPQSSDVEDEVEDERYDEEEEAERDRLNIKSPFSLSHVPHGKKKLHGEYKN
Sequence of hGYS2 enzyme (recombinant hGYS2/GN1 protein) (P46976 whole entry partner): as the sequence (P46976 whole entry partner) above

| Compound | IC50 [1] [nM] | IC50 [2] [nM] | IC50 [3] [nM] |
| --- | --- | --- | --- |
| CC1(c2ccc([C@@H](NC(=O)[C@@H]3C[C@@H](F)CN3C(=O)COC(=O)N3CCN(CC4CC4)CC3)c3ccccc3)cc2F)CC1 [Compound 584, 2-[(2S,4R)-4-fluoro-2-{[(S)-[3-fluoro-4-(1-methylcyclopropyl)phenyl](phenyl)methyl]carbamoyl}pyrrolidin-1-yl]-2-oxoethyl 4-(cyclopropylmethyl) piperazine-1-carboxylate] | > 91800 | 104 | 4070 |
| Cc1ccc2[nH]cc(CC(=O)N3C[C@H](F)C[C@H]3C(=O)N[C@@H](c3ccccc3)c3ccc(C(C)C)cc3)c2c1 [Compound 138, (2S,4R)-4-fluoro-1-[2-(5-methyl-1H-indol-3-yl)acetyl]-N-[(S)-phenyl[4-(propan-2-yl)phenyl]methyl]pyrrolidine-2-carboxamide] | > 100000 | 12 | 270 |
| Cn1c(=O)ccn(CC(=O)N2C[C@H](F)C[C@H]2C(=O)N[C@@H](c2ccccc2)c2ccc(C3CC3)c(F)c2)c1=O [Compound 449, (2S,4R)-N-[(S)-(4-cyclopropyl-3-fluorophenyl)(phenyl)methyl]-4-fluoro-1-[2-(3-methyl-2,4-dioxo-1,2,3,4-tetrahydropyrimidin-1-yl)acetyl]pyrrolidine-2-carboxamide] | > 100000 | 39 | 700 |
| CCn1cc(NCC(=O)N2C[C@H](F)C[C@H]2C(=O)N[C@@H](c2ccccc2)c2ccc(C3CC3)c(F)c2)nn1 [Compound 469, (2S,4R)-N-[(S)-(4-cyclopropyl-3-fluorophenyl)(phenyl)methyl]-1-{2-[(1-ethyl-1H-1,2,3-triazol-4-yl)amino]acetyl}-4-fluoropyrrolidine-2-carboxamide] | > 100000 | 61 | 1180 |
| CC1(c2ccc([C@@H](NC(=O)[C@@H]3C[C@@H](F)CN3C(=O)Cn3cnnc3)c3ccccc3)cc2F)CC1 [Compound 582, (2S,4R)-4-fluoro-N-[(S)-[3-fluoro-4-(1-methylcyclopropyl)phenyl](phenyl)methyl]-1-[2-(4H-1,2,4-triazol-4-yl)acetyl]pyrrolidine-2-carboxamide] | > 100000 | 319 | 8080 |
| CC(C)(C)c1ccc(C(NC(=O)[C@@H]2C[C@@H](F)CN2C(=O)Cc2cnn[nH]2)c2ccccc2)nc1 (single isomer, unassigned) [Compound 611, (2S,4R)-N-[(S) or (R)-(5-tert-butylpyridin-2-yl)(phenyl)methyl]-4-fluoro-1-[2-(1H-1,2,3-triazol-5-yl)acetyl]pyrrolidine-2-carboxamide] | > 100000 | 547 | 5320 |
| CN1C(=O)C(CC(=O)N2C[C@H](F)C[C@H]2C(=O)N[C@@H](c2ccccc2)c2ccc(C3(C)CC3)c(F)c2)c2ccccc21 (stereo partly drawn) [Compound 577, (2S,4R)-4-fluoro-N-[(S)-[3-fluoro-4-(1-methylcyclopropyl)phenyl](phenyl)methyl]-1-[2-(1-methyl-2-oxo-2,3-dihydro-1H-indol-3-yl)acetyl]pyrrolidine-2-carboxamide] | 41200 | 478 | 3980 |
| O=C(N[C@@H](c1ccccc1)c1ccc(C2CC(F)(F)C2)c(F)c1)[C@@H]1C[C@@H](F)CN1C(=O)Cc1[nH]nnc1C(F)(F)F [Compound 553, (2S,4R)-N-[(S)-[4-(3,3-difluorocyclobutyl)-3-fluorophenyl](phenyl)methyl]-4-fluoro-1-{2-[4-(trifluoromethyl)-1H-1,2,3-triazol-5-yl]acetyl}pyrrolidine-2-carboxamide] | > 100000 | 8 | 400 |

Further lines, results first:

| IC50 [1] [nM] | IC50 [2] [nM] | IC50 [3] [nM] | Compound |
| --- | --- | --- | --- |
| > 100000 | 77 | 1570 | COc1cccc(C(NC(=O)[C@@H]2C[C@@H](F)CN2C(=O)Cc2cnn[nH]2)c2ccc(C(C)C)c(F)n2)c1 (single isomer, unassigned) [Compound 651, (2S,4R)-4-fluoro-N-[(S) or (R)-[6-fluoro-5-(propan-2-yl)pyridin-2-yl](3-methoxyphenyl)methyl]-1-[2-(1H-1,2,3-triazol-5-yl)acetyl]pyrrolidine-2-carboxamide] |
| > 100000 | 76 | 1050 | Cc1nn(CC(=O)N2C[C@H](F)C[C@H]2C(=O)N[C@@H](c2ccccc2)c2ccc(C(C)C)cn2)c(=O)o1 [Compound 275, (2S,4R)-4-fluoro-1-[2-(5-methyl-2-oxo-2,3-dihydro-1,3,4-oxadiazol-3-yl)acetyl]-N-N-[(S)-phenyl[5-(propan-2-yl)pyridin-2-yl]methyl]pyrrolidine-2-carboxamide] |
| > 100000 | 33 | 700 | CC(C)c1ccc([C@@H](NC(=O)[C@@H]2C[C@@H](F)CN2C(=O)Cn2cnnc2)c2ccccc2)cc1F [Compound 384, (2S,4R)-4-fluoro-N-[(S)-[3-fluoro-4-(propan-2-yl)phenyl](phenyl)methyl]-1-[2-(4H-1,2,4-triazol-4-yl)acetyl]pyrrolidine-2-carboxamide] |
| > 100000 | 8 | 240 | CNC(=O)NCC(=O)N1C[C@H](F)C[C@H]1C(=O)N[C@@H](c1ccccc1)c1ccc(C(C)C)c(F)n1 [Compound 395, (2S,4R)-4-fluoro-N-[(S)-[6-fluoro-5-(propan-2-yl)pyridin-2-yl](phenyl)methyl]-1-{2-[(methylcarbamoyl)amino]acetyl}pyrrolidine-2-carboxamide] |
| > 100000 | 65 | 1180 | CN(C)C(=O)NCC(=O)N1C[C@H](F)C[C@H]1C(=O)N[C@@H](c1ccccc1)c1ccc(C2CC(F)(F)C2)cn1 [Compound 532, (2S,4R)—N—((S)-(5-(3,3-difluorocyclobutyl)pyridin-2-yl)(phenyl)methyl)-1-((dimethylcarbamoyl)glycyl)-4-fluoropyrrolidine-2-carboxamide] |
| > 100000 | 12 | 580 | CC(C)c1ccc([C@@H](NC(=O)[C@@H]2C[C@@H](F)CN2C(=O)Cc2ccc[nH]c2=O)c2ccccc2)nc1F [Compound 793, (2S,4R)-4-fluoro-N-[(S)-[6-fluoro-5-(propan-2-yl)pyridin-2-yl](phenyl)methyl]-1-[2-(2-oxo-1,2-dihydropyridin-3-yl)acetyl]pyrrolidine-2-carboxamide] |
| > 100000 | 37 | 450 | CC(C)c1ccc([C@@H](NC(=O)[C@@H]2C[C@@H](F)CN2C(=O)Cc2cnnn2C)c2ccccc2)cc1F [Compound 335, (2S,4R)-4-fluoro-N-[(S)-[3-fluoro-4-(propan-2-yl)phenyl](phenyl)methyl]-1-[2-(1-methyl-1H-1,2,3-triazol-5-yl)acetyl]pyrrolidine-2-carboxamide] |
| > 100000 | 22 | 420 | CN(C)c1cn(CC(=O)N2C[C@H](F)C[C@H]2C(=O)N[C@@H](c2ccccc2)c2ccc(C3CC3)c(F)n2)nn1 [Compound 299, (2S,4R)-N-[(S)-(5-cyclopropyl-6-fluoropyridin-2-yl)(phenyl)methyl]-1-{2-[4-(dimethylamino)-1H-1,2,3-triazol-1-yl]acetyl}-4-fluoropyrrolidine-2-carboxamide] |
| > 100000 | 15 | 280 | CC(C)c1ccc([C@@H](NC(=O)[C@@H]2C[C@@H](F)CN2C(=O)Cc2cn(C)nn2)c2ccccc2)cc1F [Compound 336] |
